The record followed here is BindingDB's records for patent US11723908 (Suzhou Zanrong Pharma, 2023).

The target of the experiment is Receptor tyrosine-protein kinase erbB-2 (Homo sapiens, UniProt P04626). Briefly: BT474 Cellular Assay (HER2 Inhibition). The protocol: Inhibition of phosphor HER2 was determined by enzyme-linked immunosorbent assay (ELISA) in BT474 cells. BT474 cell line was purchased from ATCC (catalog number HTB-20). Human Phospho-ErbB2 ELISA kit was purchased from R&D systems (catalog number DYC1768).
Chain of Receptor tyrosine-protein kinase erbB-2 (P04626 whole entry): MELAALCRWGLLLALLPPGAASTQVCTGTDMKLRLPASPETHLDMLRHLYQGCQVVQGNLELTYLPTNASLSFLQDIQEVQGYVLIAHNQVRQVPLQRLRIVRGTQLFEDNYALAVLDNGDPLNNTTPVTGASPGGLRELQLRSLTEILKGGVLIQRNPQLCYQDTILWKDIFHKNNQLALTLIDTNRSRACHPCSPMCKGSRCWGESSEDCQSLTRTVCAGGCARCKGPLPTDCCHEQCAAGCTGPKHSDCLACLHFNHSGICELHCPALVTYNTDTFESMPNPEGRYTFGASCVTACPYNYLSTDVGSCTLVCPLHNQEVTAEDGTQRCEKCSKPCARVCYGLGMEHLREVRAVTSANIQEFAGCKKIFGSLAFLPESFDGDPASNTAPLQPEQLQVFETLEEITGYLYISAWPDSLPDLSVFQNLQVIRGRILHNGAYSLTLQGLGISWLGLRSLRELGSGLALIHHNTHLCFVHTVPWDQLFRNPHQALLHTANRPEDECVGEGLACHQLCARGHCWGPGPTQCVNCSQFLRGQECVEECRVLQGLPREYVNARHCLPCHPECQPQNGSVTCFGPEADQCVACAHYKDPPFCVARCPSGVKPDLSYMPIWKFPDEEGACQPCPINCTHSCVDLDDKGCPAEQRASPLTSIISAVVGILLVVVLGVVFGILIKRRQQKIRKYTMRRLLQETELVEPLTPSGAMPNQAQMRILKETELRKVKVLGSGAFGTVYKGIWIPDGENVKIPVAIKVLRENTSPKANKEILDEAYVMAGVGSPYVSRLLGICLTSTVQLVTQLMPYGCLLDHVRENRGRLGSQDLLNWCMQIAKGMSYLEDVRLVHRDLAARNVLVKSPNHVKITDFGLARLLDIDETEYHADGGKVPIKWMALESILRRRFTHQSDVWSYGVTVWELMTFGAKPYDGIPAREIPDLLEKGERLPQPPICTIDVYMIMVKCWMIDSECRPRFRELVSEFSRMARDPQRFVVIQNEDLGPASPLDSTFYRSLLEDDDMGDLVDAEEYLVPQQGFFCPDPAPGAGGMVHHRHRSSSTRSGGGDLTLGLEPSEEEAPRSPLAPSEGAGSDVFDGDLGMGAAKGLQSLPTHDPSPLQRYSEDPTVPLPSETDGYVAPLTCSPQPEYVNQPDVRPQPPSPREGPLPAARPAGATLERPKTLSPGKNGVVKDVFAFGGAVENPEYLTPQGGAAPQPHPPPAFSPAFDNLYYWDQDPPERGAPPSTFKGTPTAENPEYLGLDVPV

Broadly, the IC50 is the concentration that gives 50% inhibition. Low values mean greater potency, high ones weaker potency. `Cc1cc(Nc2ncnc3ccc(OC(F)(F)F)c(O[C@H]4CCN(C)CC4(F)F)c23)ccc1Oc1cc2ncnn2cn1` [US11723908, Example 73] registered an IC50 of 145 nM.
